Where “and” joins values, the source holds several entries; their conditions need not be identical. Equal values may be shown once.
Key:
[1] = target: T1, Serine protease 1 (Bos taurus, UniProt P00760); test: Enzyme Inhibition Assay
T1 sequence (P00760 whole entry): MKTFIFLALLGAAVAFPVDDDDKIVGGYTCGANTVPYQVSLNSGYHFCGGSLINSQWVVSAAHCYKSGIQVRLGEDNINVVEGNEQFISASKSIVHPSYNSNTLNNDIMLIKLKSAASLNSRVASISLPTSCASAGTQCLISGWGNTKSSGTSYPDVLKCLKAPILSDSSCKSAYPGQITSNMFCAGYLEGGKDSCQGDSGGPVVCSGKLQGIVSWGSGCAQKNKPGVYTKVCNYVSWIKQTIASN

[2] = target: Prothrombin (Homo sapiens, UniProt P00734); test: Enzyme Inhibition Assay
Method: Thrombin-catalyzed hydrolysis rates were measured spectrophotometrically using human alpha-thrombin, a chromogenic substrate in aqueous buffer, and a microplate reader. […] The IC50 values were determined by fixing the enzyme and substrate concentrations and varying the inhibitor concentration. Ki values were determined by fixing the enzyme and inhibitor concentrations and varying the substrate concentration. Michaelis-Menton kinetics was applied to the initial reaction slopes using the program K.Cat (Bio Metallics Inc.).

NC(N)=NCCCC(NC(=O)[C@@H]1CCCN1C(=O)[C@@H](N)Cc1ccccc1)C(=O)c1nc2ccccc2s1 (stereo partly drawn) [(2S)-1-[(2S)-2-amino-3-phenylpropanoyl]-N-[1-(1,3-benzothiazol-2-yl)-5-carbamimidamido-1-oxopentan-2-yl]pyrrolidine-2-carboxamide]
IC50 [1]: 5.8 nM

NC(N)=NCCCC(NC(=O)[C@@H]1CCCN1C(=O)C(N)(c1ccccc1)c1ccccc1)C(=O)c1nc2ccccc2s1 (stereo partly drawn) [(2S)-1-(2-amino-2,2-diphenylacetyl)-N-[1-(1,3-benzothiazol-2-yl)-5-carbamimidamido-1-oxopentan-2-yl]pyrrolidine-2-carboxamide]
IC50 ([2]; pH 7.4, 37 °C): 15 nM | Ki ([2]; pH 7.4, 37 °C): 2.1 nM | Ki [1]: 1.8 nM

CN[C@H](Cc1ccccc1)C(=O)N1CCC[C@H]1C(=O)N[C@@H](CCCNC(=N)N)C(=O)c1cc2ccccc2s1
IC50 [2]: 13000 nM

CN[C@H](Cc1ccccc1)C(=O)N1CCC[C@H]1C(=O)N[C@H](CC(=O)c1nc2ccccc2s1)C1CCC(N)CC1 (stereo partly drawn) [(2S)-N-[(1R)-1-(4-aminocyclohexyl)-3-(1,3-benzothiazol-2-yl)-3-oxopropyl]-1-[(2R)-2-(methylamino)-3-phenylpropanoyl]pyrrolidine-2-carboxamide]
IC50 [2]: > 100000 nM | IC50 [1]: 58000 nM

CC(N)(Cc1ccccc1)C(=O)N1CCC[C@H]1C(=O)NC(CCCN=C(N)N)C(=O)c1nc2ccccc2s1 (stereo partly drawn) [(2S)-1-(2-amino-2-benzylpropanoyl)-N-[1-(1,3-benzothiazol-2-yl)-5-carbamimidamido-1-oxopentan-2-yl]pyrrolidine-2-carboxamide]
Ki [1]: 3.9 nM

CCS(=O)(=O)N[C@H](Cc1ccccc1)C(=O)N1CCC[C@H]1C(=O)N[C@@H](C(=O)c1nc2ccccc2s1)C1CCC(N)CC1 (stereo partly drawn) [The relative stereochemistry of the cyclohexyl ring is trans]
IC50 [2]: 460 nM | Ki [2]: 53 nM | Ki [1]: 87 nM

CN[C@H](Cc1ccccc1)C(=O)N1CCC[C@H]1C(=O)N[C@@H](Cc1ccc(C(=N)N)cc1)C(=O)c1nc2ccccc2s1 [(2S)-N-[(2S)-1-(1,3-benzothiazol-2-yl)-3-(4-carbamimidoylphenyl)-1-oxopropan-2-yl]-1-[(2R)-2-(methylamino)-3-phenylpropanoyl]pyrrolidine-2-carboxamide]
IC50 [2]: > 1000 nM

NC(N)=NCCCC(NC(=O)[C@@H]1CCCN1C(=O)C1(O)c2ccccc2-c2ccccc21)C(=O)c1nc2ccccc2s1 (stereo partly drawn) [(2S)-N-[1-(1,3-benzothiazol-2-yl)-5-carbamimidamido-1-oxopentan-2-yl]-1-[(9-hydroxy-9H-fluoren-9-yl)carbonyl]pyrrolidine-2-carboxamide]
IC50 [2]: 95 nM | Ki [2]: 3.1 nM | Ki [1]: 2 nM

CN[C@H](Cc1ccccc1)C(=O)N1CCC[C@H]1C(=O)N[C@@H](CCCN=C(N)N)C(=O)c1nc2ccc(C(=O)O)cc2s1 [2-[(2S)-5-carbamimidamido-2-{[(2S)-1-[(2R)-2-(methylamino)-3-phenylpropanoyl]pyrrolidin-2-yl]formamido}pentanoyl]-1,3-benzothiazole-6-carboxylic acid]
Ki [1]: 2.7 nM

CN[C@H](Cc1ccccc1)C(=O)N1CCC[C@H]1C(=O)N[C@@H](CC(=O)c1nc2ccccc2s1)C1CCC(N)CC1 (stereo partly drawn) [(2S)-N-[(1S)-1-(4-aminocyclohexyl)-3-(1,3-benzothiazol-2-yl)-3-oxopropyl]-1-[(2R)-2-(methylamino)-3-phenylpropanoyl]pyrrolidine-2-carboxamide]
IC50 [2]: > 100000 nM | IC50 [1]: 22000 nM

CN[C@H](Cc1ccc(F)cc1)C(=O)N1CCC[C@H]1C(=O)NC(CCCN=C(N)N)C(=O)c1nc2ccccc2s1 (stereo partly drawn) [(2S)-N-[1-(1,3-benzothiazol-2-yl)-5-carbamimidamido-1-oxopentan-2-yl]-1-[(2R)-3-(4-fluorophenyl)-2-(methylamino)propanoyl]pyrrolidine-2-carboxamide]
Ki [1]: 3.3 nM

CN[C@H](Cc1ccccc1)C(=O)N1CCC[C@H]1C(=O)NC(CCCN=C(N)N)C(=O)c1nccs1 (stereo partly drawn) [(2S)-N-[5-carbamimidamido-1-oxo-1-(1,3-thiazol-2-yl)pentan-2-yl]-1-[(2R)-2-(methylamino)-3-phenylpropanoyl]pyrrolidine-2-carboxamide]
IC50 [2]: 19 nM | Ki [2]: 2.1 nM | Ki [1]: 1.2 nM

CN[C@@H](C(=O)N1CCC[C@H]1C(=O)NC(CCCN=C(N)N)C(=O)c1nc2ccccc2s1)c1ccccc1 (stereo partly drawn) [(2S)-N-[1-(1,3-benzothiazol-2-yl)-5-carbamimidamido-1-oxopentan-2-yl]-1-[(2R)-2-(methylamino)-2-phenylacetyl]pyrrolidine-2-carboxamide]
IC50 [1]: 32 nM

CN[C@H](Cc1ccccc1)C(=O)N1CCC[C@H]1C(=O)NC(CCCN=C(N)N)C(=O)c1ccccn1 (stereo partly drawn) [(2S)-N-[5-carbamimidamido-1-oxo-1-(pyridin-2-yl)pentan-2-yl]-1-[(2R)-2-(methylamino)-3-phenylpropanoyl]pyrrolidine-2-carboxamide]
IC50 [2]: 930 nM | Ki [2]: 85 nM | Ki [1]: 73 nM

CN[C@H](Cc1ccccc1)C(=O)N1CCC[C@H]1C(=O)NC(CCCN=C(N)N)C(O)c1nc2ccccc2s1 (stereo partly drawn) [(2S)-N-[1-(1,3-benzothiazol-2-yl)-5-carbamimidamido-1-hydroxypentan-2-yl]-1-[(2R)-2-(methylamino)-3-phenylpropanoyl]pyrrolidine-2-carboxamide]
IC50 [2]: 48000 nM and 17000 nM | Ki [2]: 5300 nM and 1600 nM | Ki [1]: 180000 nM and 250000 nM

CN[C@H](Cc1ccccc1)C(=O)N1CCC[C@H]1C(=O)N[C@H](C(=O)c1nc2ccccc2s1)C1CCC(CN)CC1 (stereo partly drawn) [(2S)-N-[(1S)-1-[4-(aminomethyl)cyclohexyl]-2-(1,3-benzothiazol-2-yl)-2-oxoethyl]-1-[(2R)-2-(methylamino)-3-phenylpropanoyl]pyrrolidine-2-carboxamide]
IC50 [2]: 17000 nM | Ki [2]: 920 nM | Ki [1]: 54 nM

CN[C@H](Cc1ccccc1)C(=O)N1CCC[C@H]1C(=O)N[C@@H](Cc1ccccc1)C(=O)c1nc2ccccc2s1 [(2S)-N-[(2S)-1-(1,3-benzothiazol-2-yl)-1-oxo-3-phenylpropan-2-yl]-1-[(2R)-2-(methylamino)-3-phenylpropanoyl]pyrrolidine-2-carboxamide]
IC50 [2]: > 1000 nM

CN[C@H](Cc1ccccc1)C(=O)N1CCC[C@H]1C(=O)N[C@@H](C(=O)c1nc2ccccc2s1)C1CCC(N)CC1 (stereo partly drawn) [The relative stereochemistry of the cyclohexyl ring is trans]
IC50 [2]: 1900 nM | Ki [2]: 110 nM | Ki [1]: 330 nM

CN[C@H](Cc1ccccc1)C(=O)N1CCC[C@H]1C(=O)N[C@@H](C(=O)c1nc2ccccc2s1)C1CCC(CN)CC1 (stereo partly drawn) [(2S)-N-[(1R)-1-[4-(aminomethyl)cyclohexyl]-2-(1,3-benzothiazol-2-yl)-2-oxoethyl]-1-[(2R)-2-(methylamino)-3-phenylpropanoyl]pyrrolidine-2-carboxamide]
IC50 [2]: > 1000 nM

CN[C@H](Cc1ccccc1)C(=O)N1CCC[C@H]1C(=O)NC(CCCN=C(N)N)C(=O)c1nccn1C (stereo partly drawn) [(2S)-N-[5-carbamimidamido-1-(1-methyl-1H-imidazol-2-yl)-1-oxopentan-2-yl]-1-[(2R)-2-(methylamino)-3-phenylpropanoyl]pyrrolidine-2-carboxamide]
IC50 [2]: 1500 nM | Ki [2]: 200 nM | Ki [1]: 5800 nM

CN[C@@H](C(=O)N1CCC[C@H]1C(=O)N[C@@H](CCCN=C(N)N)C(=O)c1nc2ccccc2s1)C(c1ccccc1)c1ccccc1 [(2S)-N-[(2S)-1-(1,3-benzothiazol-2-yl)-5-carbamimidamido-1-oxopentan-2-yl]-1-[(2R)-2-(methylamino)-3,3-diphenylpropanoyl]pyrrolidine-2-carboxamide]
IC50 [1]: 30 nM

N=C(N)NCCCCC(=O)c1nc2ccccc2s1 [3-[5-(1,3-benzothiazol-2-yl)-5-oxopentyl]guanidine]
IC50 [2]: > 300000 nM | Ki [1]: > 100000 nM

CN[C@H](Cc1ccccc1)C(=O)N1CCC[C@H]1C(=O)NC(CCCN=C(N)N)C(=O)c1nc2ccccc2s1 (stereo partly drawn) [(2S)-N-[1-(1,3-benzothiazol-2-yl)-5-carbamimidamido-1-oxopentan-2-yl]-1-[(2R)-2-(methylamino)-3-phenylpropanoyl]pyrrolidine-2-carboxamide]
IC50 ([2]; pH 7.4, 37 °C): 29 nM | Ki ([2]; pH 7.4, 37 °C): 0.2 nM

CNCCCC[C@@H](NC(=O)[C@@H]1CCCN1C(=O)[C@@H](Cc1ccccc1)NC)C(=O)c1nc2ccccc2s1 [(2S)-N-[(2R)-1-(1,3-benzothiazol-2-yl)-6-(methylamino)-1-oxohexan-2-yl]-1-[(2R)-2-(methylamino)-3-phenylpropanoyl]pyrrolidine-2-carboxamide]
IC50 [2]: > 1000 nM

CNCCCC[C@H](NC(=O)[C@@H]1CCCN1C(=O)[C@@H](Cc1ccccc1)NC)C(=O)c1nc2ccccc2s1 [(2S)-N-[(2S)-1-(1,3-benzothiazol-2-yl)-6-(methylamino)-1-oxohexan-2-yl]-1-[(2R)-2-(methylamino)-3-phenylpropanoyl]pyrrolidine-2-carboxamide]
IC50 [2]: > 1000 nM

CN[C@@H](C(=O)N1CCC[C@H]1C(=O)N[C@@H](CCCN=C(N)N)C(=O)c1nc2ccccc2s1)C1CCCCC1 [(2S)-N-[(2S)-1-(1,3-benzothiazol-2-yl)-5-carbamimidamido-1-oxopentan-2-yl]-1-[(2R)-2-cyclohexyl-2-(methylamino)acetyl]pyrrolidine-2-carboxamide]
IC50 ([2]; pH 7.4, 37 °C): 5.3 nM | Ki ([2]; pH 7.4, 37 °C): 0.018 nM | Ki [1]: 1.2 nM

— BindingDB's records for doi:10.1021/jm0303857 (Johnson & Johnson Pharmaceutical, 2005)
